Data reported in ChEMBL document CHEMBL4732047, “New imidazopyridines with phosphodiesterase 4 and 7 inhibitory activity and their efficacy in animal models of inflammatory and autoimmune diseases” (Eur J Med Chem, 2021).
pIC50: −log10 of the molar value. Calls of active or inactive are those of the source. The rule behind the calls is not given here.

How the values were obtained:
[1] = target: High affinity 3',5'-cyclic-AMP phosphodiesterase 7A (Homo sapiens, UniProt Q13946); assay: Inhibition of human recombinant PDE7A using cAMP as substrate incubated for 20 mins measured by Kinase Glo reagent based microplate reader assay
Sequence of High affinity 3',5'-cyclic-AMP phosphodiesterase 7A (Q13946 whole entry): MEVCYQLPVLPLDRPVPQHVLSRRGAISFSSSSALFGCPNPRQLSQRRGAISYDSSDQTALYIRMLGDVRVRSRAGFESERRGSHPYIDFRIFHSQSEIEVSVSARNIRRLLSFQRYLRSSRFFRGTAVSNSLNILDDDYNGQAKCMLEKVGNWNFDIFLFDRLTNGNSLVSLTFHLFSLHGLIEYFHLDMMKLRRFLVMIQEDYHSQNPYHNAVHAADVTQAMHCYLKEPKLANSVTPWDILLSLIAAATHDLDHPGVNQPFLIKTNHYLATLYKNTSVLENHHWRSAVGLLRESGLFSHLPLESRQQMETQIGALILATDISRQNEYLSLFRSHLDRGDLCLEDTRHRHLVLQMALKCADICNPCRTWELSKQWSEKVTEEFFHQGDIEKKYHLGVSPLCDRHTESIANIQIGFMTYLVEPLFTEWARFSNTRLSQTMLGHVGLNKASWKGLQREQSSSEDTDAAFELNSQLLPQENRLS

[2] = target: 3',5'-cyclic-AMP phosphodiesterase 4B (Homo sapiens, UniProt Q07343); assay: Inhibition of human recombinant PDE4B using cAMP as substrate incubated for 20 mins measured by Kinase Glo reagent based microplate reader assay
Sequence of 3',5'-cyclic-AMP phosphodiesterase 4B (Q07343 whole entry): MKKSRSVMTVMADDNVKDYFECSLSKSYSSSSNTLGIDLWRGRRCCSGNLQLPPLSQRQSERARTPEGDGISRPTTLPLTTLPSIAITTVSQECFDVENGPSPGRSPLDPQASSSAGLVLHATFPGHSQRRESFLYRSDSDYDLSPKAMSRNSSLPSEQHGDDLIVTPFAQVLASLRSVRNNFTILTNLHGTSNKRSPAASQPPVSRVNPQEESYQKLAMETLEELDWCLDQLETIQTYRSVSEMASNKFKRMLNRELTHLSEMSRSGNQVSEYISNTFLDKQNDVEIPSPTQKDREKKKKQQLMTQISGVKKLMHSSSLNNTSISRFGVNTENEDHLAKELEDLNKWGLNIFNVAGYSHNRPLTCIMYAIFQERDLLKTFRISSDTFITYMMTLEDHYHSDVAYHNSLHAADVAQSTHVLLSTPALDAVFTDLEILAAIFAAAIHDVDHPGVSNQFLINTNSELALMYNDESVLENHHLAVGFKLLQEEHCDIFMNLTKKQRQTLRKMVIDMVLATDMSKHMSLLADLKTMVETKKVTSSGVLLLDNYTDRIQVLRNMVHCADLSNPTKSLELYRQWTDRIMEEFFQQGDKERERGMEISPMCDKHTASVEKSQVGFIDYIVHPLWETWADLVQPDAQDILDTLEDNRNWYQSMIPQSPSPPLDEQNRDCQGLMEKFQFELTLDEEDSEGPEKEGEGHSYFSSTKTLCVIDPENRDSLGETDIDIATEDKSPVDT

Mus musculus [3] = assay: Hepatoprotective activity in ConA-induced BALB/c hepatitis mouse model assessed as decrease in serum IL-6 level at 50 mg/kg, ip administration and measured after 8 hrs relative to control; format: functional, organism-based
[4] = target: cAMP and cAMP-inhibited cGMP 3',5'-cyclic phosphodiesterase 10A (Homo sapiens, UniProt Q9Y233); assay: Inhibition of human recombinant PDE10A using cAMP as substrate incubated for 20 mins measured by Kinase Glo reagent based microplate reader assay
Sequence of cAMP and cAMP-inhibited cGMP 3',5'-cyclic phosphodiesterase 10A (Q9Y233 whole entry): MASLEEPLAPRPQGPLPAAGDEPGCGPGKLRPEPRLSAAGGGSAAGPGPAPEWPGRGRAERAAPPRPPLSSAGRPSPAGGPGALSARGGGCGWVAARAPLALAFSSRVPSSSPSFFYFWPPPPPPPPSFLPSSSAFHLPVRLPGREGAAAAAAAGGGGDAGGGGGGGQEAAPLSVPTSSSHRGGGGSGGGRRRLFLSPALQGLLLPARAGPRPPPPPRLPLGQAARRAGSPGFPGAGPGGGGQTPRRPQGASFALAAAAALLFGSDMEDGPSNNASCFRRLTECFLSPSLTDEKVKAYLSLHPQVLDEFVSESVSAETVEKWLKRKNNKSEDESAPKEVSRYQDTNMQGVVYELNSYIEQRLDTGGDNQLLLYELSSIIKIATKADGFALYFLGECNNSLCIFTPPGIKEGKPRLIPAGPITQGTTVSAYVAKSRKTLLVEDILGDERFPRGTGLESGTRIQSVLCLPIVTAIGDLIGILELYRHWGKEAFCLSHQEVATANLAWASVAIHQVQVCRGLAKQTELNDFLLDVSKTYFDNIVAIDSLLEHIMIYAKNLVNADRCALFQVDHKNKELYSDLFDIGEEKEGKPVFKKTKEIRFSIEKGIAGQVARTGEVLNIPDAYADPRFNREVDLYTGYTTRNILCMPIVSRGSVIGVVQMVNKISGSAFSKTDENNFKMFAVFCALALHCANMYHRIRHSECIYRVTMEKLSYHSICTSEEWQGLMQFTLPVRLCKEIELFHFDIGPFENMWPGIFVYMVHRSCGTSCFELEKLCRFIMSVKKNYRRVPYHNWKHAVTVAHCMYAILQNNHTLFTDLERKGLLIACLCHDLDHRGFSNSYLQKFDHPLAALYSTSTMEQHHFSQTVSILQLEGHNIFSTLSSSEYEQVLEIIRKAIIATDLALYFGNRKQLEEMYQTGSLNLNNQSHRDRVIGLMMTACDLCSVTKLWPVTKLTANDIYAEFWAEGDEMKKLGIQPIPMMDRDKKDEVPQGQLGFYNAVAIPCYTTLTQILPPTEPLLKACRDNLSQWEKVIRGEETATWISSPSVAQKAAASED

[5] = target: Dual specificity calcium/calmodulin-dependent 3',5'-cyclic nucleotide phosphodiesterase 1B (Homo sapiens, UniProt Q01064); assay: Inhibition of human recombinant PDE1B using cAMP as substrate incubated for 20 mins measured by Kinase Glo reagent based microplate reader assay
Sequence of Dual specificity calcium/calmodulin-dependent 3',5'-cyclic nucleotide phosphodiesterase 1B (Q01064 whole entry): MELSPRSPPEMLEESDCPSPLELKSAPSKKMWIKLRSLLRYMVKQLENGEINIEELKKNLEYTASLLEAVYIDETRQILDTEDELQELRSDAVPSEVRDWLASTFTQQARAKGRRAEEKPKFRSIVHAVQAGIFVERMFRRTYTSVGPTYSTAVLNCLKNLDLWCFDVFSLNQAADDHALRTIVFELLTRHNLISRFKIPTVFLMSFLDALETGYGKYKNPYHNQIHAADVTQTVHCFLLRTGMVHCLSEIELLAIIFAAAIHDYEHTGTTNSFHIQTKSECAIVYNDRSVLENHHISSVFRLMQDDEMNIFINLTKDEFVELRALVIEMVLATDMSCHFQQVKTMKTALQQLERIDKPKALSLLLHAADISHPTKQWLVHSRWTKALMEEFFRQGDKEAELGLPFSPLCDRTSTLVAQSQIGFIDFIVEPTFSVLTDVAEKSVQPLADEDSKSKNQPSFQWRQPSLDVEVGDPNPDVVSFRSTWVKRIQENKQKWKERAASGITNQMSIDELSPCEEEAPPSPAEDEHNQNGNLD

[6] = target: cGMP-specific 3',5'-cyclic phosphodiesterase (Homo sapiens, UniProt O76074); assay: Inhibition of human recombinant PDE5A using cGMP as substrate incubated for 20 mins measured by Kinase Glo reagent based microplate reader assay
[7] = target: cGMP-inhibited 3',5'-cyclic phosphodiesterase 3A (Homo sapiens, UniProt Q14432); assay: Inhibition of human recombinant PDE3A using cAMP as substrate incubated for 20 mins measured by Kinase Glo reagent based microplate reader assay
[8] = target: 3',5'-cyclic-AMP phosphodiesterase 4D (Homo sapiens, UniProt Q08499); assay: Inhibition of human recombinant PDE4D using cAMP as substrate incubated for 20 mins measured by Kinase Glo reagent based microplate reader assay
Sequence of 3',5'-cyclic-AMP phosphodiesterase 4D (Q08499 whole entry): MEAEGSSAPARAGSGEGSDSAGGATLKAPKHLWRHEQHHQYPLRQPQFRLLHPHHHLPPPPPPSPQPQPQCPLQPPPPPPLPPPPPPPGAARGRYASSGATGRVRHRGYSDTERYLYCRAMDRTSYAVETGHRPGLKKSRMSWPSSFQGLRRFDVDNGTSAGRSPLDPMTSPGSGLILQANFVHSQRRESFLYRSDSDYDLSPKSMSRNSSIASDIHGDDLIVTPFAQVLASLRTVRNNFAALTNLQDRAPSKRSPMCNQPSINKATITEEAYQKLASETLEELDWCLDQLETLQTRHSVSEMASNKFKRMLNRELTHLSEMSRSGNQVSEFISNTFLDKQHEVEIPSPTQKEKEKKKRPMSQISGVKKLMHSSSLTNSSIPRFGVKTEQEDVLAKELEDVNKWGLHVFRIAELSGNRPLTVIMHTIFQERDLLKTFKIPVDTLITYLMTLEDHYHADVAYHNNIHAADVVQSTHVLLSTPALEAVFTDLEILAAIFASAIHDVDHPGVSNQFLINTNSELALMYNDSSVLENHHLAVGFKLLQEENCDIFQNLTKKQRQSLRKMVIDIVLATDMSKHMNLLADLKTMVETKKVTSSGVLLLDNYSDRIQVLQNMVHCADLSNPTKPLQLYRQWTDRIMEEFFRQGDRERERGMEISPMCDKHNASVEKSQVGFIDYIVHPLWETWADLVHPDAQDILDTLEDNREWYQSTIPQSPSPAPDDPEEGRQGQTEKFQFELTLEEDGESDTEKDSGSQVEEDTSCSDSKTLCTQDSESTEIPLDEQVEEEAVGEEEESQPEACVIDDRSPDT

[9] = target: cGMP-dependent 3',5'-cyclic phosphodiesterase (Homo sapiens, UniProt O00408); assay: Inhibition of human recombinant PDE2A using cGMP as substrate incubated for 20 mins measured by Kinase Glo reagent based microplate reader assay
Sequence of cGMP-dependent 3',5'-cyclic phosphodiesterase (O00408 whole entry): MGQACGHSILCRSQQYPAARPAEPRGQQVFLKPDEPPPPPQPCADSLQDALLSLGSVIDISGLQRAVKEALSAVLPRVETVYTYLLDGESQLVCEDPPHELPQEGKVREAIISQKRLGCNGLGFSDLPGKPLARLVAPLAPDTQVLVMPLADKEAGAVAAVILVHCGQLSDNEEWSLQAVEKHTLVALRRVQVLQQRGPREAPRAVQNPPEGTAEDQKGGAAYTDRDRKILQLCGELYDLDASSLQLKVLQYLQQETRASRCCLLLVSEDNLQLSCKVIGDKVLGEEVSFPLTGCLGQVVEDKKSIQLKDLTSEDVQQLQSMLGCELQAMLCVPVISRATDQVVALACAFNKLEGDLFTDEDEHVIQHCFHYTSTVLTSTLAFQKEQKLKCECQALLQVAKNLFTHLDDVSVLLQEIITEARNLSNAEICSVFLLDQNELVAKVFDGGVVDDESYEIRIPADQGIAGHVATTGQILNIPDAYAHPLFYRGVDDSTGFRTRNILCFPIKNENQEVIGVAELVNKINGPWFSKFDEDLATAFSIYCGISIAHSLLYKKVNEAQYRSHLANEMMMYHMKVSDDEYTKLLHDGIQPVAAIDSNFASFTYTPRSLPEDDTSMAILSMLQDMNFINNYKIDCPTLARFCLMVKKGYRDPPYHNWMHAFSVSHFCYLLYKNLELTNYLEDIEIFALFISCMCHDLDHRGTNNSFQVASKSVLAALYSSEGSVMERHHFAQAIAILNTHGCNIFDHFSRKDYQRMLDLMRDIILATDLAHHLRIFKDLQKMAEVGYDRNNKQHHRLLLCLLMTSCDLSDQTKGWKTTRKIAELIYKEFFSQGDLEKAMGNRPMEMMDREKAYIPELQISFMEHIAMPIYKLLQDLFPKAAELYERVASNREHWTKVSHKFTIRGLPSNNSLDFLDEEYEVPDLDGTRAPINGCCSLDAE

[10] = Selectivity index, ratio of IC50 for inhibition of human recombinant PDE3A to IC50 for inhibition of human recombinant PDE4B
[11] = Selectivity index, ratio of IC50 for inhibition of human recombinant PDE4D to IC50 for inhibition of human recombinant PDE4B
Mus musculus [12] = assay: Hepatoprotective activity in ConA-induced BALB/c hepatitis mouse model assessed as decrease in serum IFNgamma level at 50 mg/kg, ip administration and measured after 8 hrs relative to control; format: functional, organism-based
Rattus norvegicus [13] = assay: Antiinflammatory activity in LPS-induced Wistar rat endotoxemia model assessed as decrease in plasma TNFalpha level at 5 mg/kg, ip measured after 1.5 hr; format: functional; parameters: scale not given: the % may be the effect or the level left
Rattus norvegicus [14] = assay: Antiinflammatory activity in LPS-induced Wistar rat endotoxemia model assessed as decrease in plasma TNFalpha level at 5 mg/kg, ip measured after 1 hr; format: functional; parameters: scale not given: the % may be the effect or the level left
Rattus norvegicus [15] = assay: Antiinflammatory activity in LPS-induced Wistar rat endotoxemia model assessed as decrease in plasma TNFalpha level at 5 mg/kg, ip measured after 2 hr; format: functional; parameters: scale not given: the % may be the effect or the level left
Mus musculus [16] = assay: Hepatoprotective activity in ConA-induced BALB/c hepatitis mouse model assessed as decrease in serum IFNgamma level at 10 mg/kg, ip administration and measured after 8 hrs relative to control; format: functional, organism-based
Mus musculus [17] = assay: Hepatoprotective activity in ConA-induced BALB/c hepatitis mouse model assessed as decrease in serum IL-6 level at 10 mg/kg, ip administration and measured after 8 hrs relative to control; format: functional, organism-based
Mus musculus [18] = assay: Hepatoprotective activity in ConA-induced BALB/c hepatitis mouse model assessed as decrease in serum alanine aminotransferase level at 50 mg/kg, ip administration and measured after 8 hrs relative to control; format: functional, organism-based
Mus musculus [19] = assay: Hepatoprotective activity in ConA-induced BALB/c hepatitis mouse model assessed as decrease in serum alanine aminotransferase level at 10 mg/kg, ip administration and measured after 8 hrs relative to control; format: functional, organism-based
Mus musculus [20] = assay: Hepatoprotective activity in ConA-induced BALB/c hepatitis mouse model assessed as decrease in serum aspartate aminotransferase level at 10 mg/kg, ip administration and measured after 8 hrs relative to control; format: functional, organism-based
Mus musculus [21] = assay: Hepatoprotective activity in ConA-induced BALB/c hepatitis mouse model assessed as decrease in serum aspartate aminotransferase level at 50 mg/kg, ip administration and measured after 8 hrs relative to control; format: functional, organism-based

SMILES | pIC50 [1] | pIC50 [2] | further results
c1coc(-c2nc3c(NCCc4cccs4)nccc3n2C2CCCC2)c1 | < 3.70 | 5.55 | 
CCCCCn1c(-c2ccccc2)nc2c(N)ccnc21 | < 3.70 | 4.54 | 
CCCCCn1c(-c2ccco2)nc2c(N(C)CCCO)ccnc21 | 4.72 | 4.74 | 
CCCCCn1c(-c2ccco2)nc2c(N)ccnc21 | < 3.70 | 4.40 | 
CCCCCn1c(-c2ccc([N+](=O)[O-])cc2)nc2c(N)ccnc21 | < 3.70 | < 3.70 | 
OCCCNc1nccc2c1nc(-c1ccco1)n2C1CCCC1 | < 3.70 | 4.72 | 
CCCCCn1c(-c2ccco2)nc2c(N(C)CCCO)nccc21 | 5.14 | 5.46 | Activity (Mus musculus [3]): inactive; pIC50 [4]: 5.53; pIC50 [5]: 5.64; pIC50 [6]: 5.54; pIC50 [7]: 5.00; pIC50 [8]: 4.59; pIC50 [9]: 4.66
CCCCCn1c(-c2ccco2)nc2c(NCCCOC)ccnc21 | 4.47 | 5.45 | pIC50 [4]: 5.00; pIC50 [5]: 6.44; pIC50 [6]: 4.27; pIC50 [7]: 4.39; Ratio IC50 [10]: > 10; Ratio IC50 [11]: 10; pIC50 [8]: 4.57; pIC50 [9]: 5.16
COCCNc1ccnc2c1nc(-c1ccco1)n2C1CCCC1 | 3.93 | 5.27 | 
CCCCCn1c(-c2ccc(OC)cc2)nc2c(N)ccnc21 | < 3.70 | 4.38 | 
CCCCCn1c(-c2ccco2)nc2c(NCCCO)ccnc21 | 4.20 | 4.30 | 
CCCCCn1c(-c2ccccc2)nc2c(NCCCO)ccnc21 | < 3.70 | 4.64 | 
CCCCCn1c(-c2ccccc2)nc2c(NCc3ccccc3)ccnc21 | < 3.70 | 4.77 | 
CCCCCn1c(-c2ccccc2)nc2c(NCCCO)nccc21 | < 3.70 | 4.22 | 
CCCCCn1c(-c2ccco2)nc2c(NCCCOC)nccc21 | 4.08 | 4.90 | 
CCCCCC[C@H]([C@H](C)O)n1cnc2c(N)ncnc21 [(+)-EHNA] |  |  | pIC50 [9]: 5.58
COc1ccc(C2CNC(=O)C2)cc1OC1CCCC1 (configuration not stated) [ROLIPRAM] |  |  | Activity (Mus musculus [12]): Active; Activity (Mus musculus [3]): Active; Activity (Rattus norvegicus [13]): 73.5%; Activity (Rattus norvegicus [14]): 85.6%; Activity (Rattus norvegicus [15]): 77.1%; Activity (Mus musculus [16]): Active; Activity (Mus musculus [17]): Active; Activity (Mus musculus [18]): Active; Activity (Mus musculus [19]): Active; Activity (Mus musculus [20]): Active; Activity (Mus musculus [21]): Active
